Assay results taken from ChEMBL document CHEMBL1201862, “PubChem BioAssay data set” (2004).
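Where inhibition never reached the appropriate level, the endpoint shown equals the highest concentration tested. Otherwise, values were interpolated linearly from a five-concentration, 48-hour dose response in 96-well plates. Abbreviation: GI50, concentration required for 50% inhibition of growth.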 Calls of active or inactive are those of the source. Rule as the data show it: active = GI50 up to about 1.1 µM and inactive = higher.

Assays:
Test in all cases: DTP human tumour cell line panel, 48 h
KM-20L2 = test system: KM-20L2
XF498 = test system: XF498
HOP-18 = test system: HOP-18
DMS-273 = test system: DMS-273
DMS-114 = test system: DMS-114
SNB-78 = test system: SNB-78
DLD-1 = test system: DLD-1
M19-MEL = test system: M19-MEL
RXF 631 = test system: RXF 631

Row | Structure (SMILES) | GI50 (KM-20L2) | GI50 (XF498) | GI50 (HOP-18) | GI50 (DMS-273) | GI50 (DMS-114) | GI50 (SNB-78) | GI50 (DLD-1) | GI50 (M19-MEL) | GI50 (RXF 631)
1 | COc1cc2c(cc1OC)C(=O)N1CCCC1C(=O)S2 (configuration not stated) | > 100 µM (inactive) | 92.7 µM (inactive) | 25.4 µM (inactive) | > 100 µM (inactive) | > 100 µM (inactive) | > 100 µM (inactive) | > 100 µM (inactive) | – | –
2 | CCC(CC)n1c(C)nc2c1C(=O)c1ccccc1C2=O | 39.4 µM (inactive) | – | – | 23.1 µM (inactive) | – | 49.7 µM (inactive) | 24.3 µM (inactive) | 14.9 µM (inactive) | –
3 | COc1ccc([C@H]2CC(=O)NCCCCN2)cc1 | > 100 µM (inactive) | > 100 µM (inactive) | > 100 µM (inactive) | > 100 µM (inactive) | > 100 µM (inactive) | > 100 µM (inactive) | > 100 µM (inactive) | > 100 µM (inactive) | –
4 | O=C1CCC(=O)c2c1c(O)c1ccncc1c2O | 20.9 µM (inactive) | 18.4 µM (inactive) | 26.9 µM (inactive) | 17.3 µM (inactive) | 12 µM (inactive) | 23.7 µM (inactive) | 13.7 µM (inactive) | 2.92 µM (inactive) | 25.4 µM (inactive)
5 | Cc1ccc(/N=N/c2ccc(N(CCC#N)CCC#N)cc2C)c(Br)c1 | – | 9.08 µM (inactive) | 15.6 µM (inactive) | 10 µM (inactive) | 12.8 µM (inactive) | 24.7 µM (inactive) | 13.7 µM (inactive) | 25.4 µM (inactive) | 4.35 µM (inactive)
6 | CC1COS(=O)O1 (configuration not stated) | > 100 µM (inactive) | > 100 µM (inactive) | > 100 µM (inactive) | > 100 µM (inactive) | > 100 µM (inactive) | > 100 µM (inactive) | > 100 µM (inactive) | > 100 µM (inactive) | –
7 | O=C1OC(=O)c2c1c(-c1ccccc1)cn2-c1ccc(Cl)cc1 | 22.1 µM (inactive) | > 100 µM (inactive) | > 100 µM (inactive) | 8.77 µM (inactive) | 77.3 µM (inactive) | > 100 µM (inactive) | > 100 µM (inactive) | 21.1 µM (inactive) | > 100 µM (inactive)
8 | N/N=C(\Cc1ccccc1)NN=C(N)N | – | > 100 µM (inactive) | > 100 µM (inactive) | – | – | > 100 µM (inactive) | > 100 µM (inactive) | > 100 µM (inactive) | > 100 µM (inactive)
9 | O=C(c1nc2ccc([N+](=O)[O-])cc2nc1O)C(O)c1ccc2c(c1)OCO2 (configuration not stated) | 47 µM (inactive) | – | > 100 µM (inactive) | > 100 µM (inactive) | 29.5 µM (inactive) | – | > 100 µM (inactive) | > 100 µM (inactive) | –
10 | COc1nc(NC2OC(COC(C)=O)C(OC(C)=O)C(OC(C)=O)C2OC(C)=O)c(-c2csc(N)n2)c(=O)n1C (configuration not stated) | > 100 µM (inactive) | – | 39.4 µM (inactive) | – | 53.5 µM (inactive) | 62.2 µM (inactive) | 52.7 µM (inactive) | 36.5 µM (inactive) | –
11 | NC(=O)N/N=C(\CC1OC(=O)c2ccccc21)c1ccco1 (configuration not stated) | > 100 µM (inactive) | – | > 100 µM (inactive) | > 100 µM (inactive) | > 100 µM (inactive) | – | > 100 µM (inactive) | > 100 µM (inactive) | > 100 µM (inactive)
12 | N#C/C(=C\c1ccc2ccccc2c1)c1ccccc1 | 15.6 µM (inactive) | – | 22.1 µM (inactive) | 14 µM (inactive) | – | 28.1 µM (inactive) | 25.7 µM (inactive) | 26.6 µM (inactive) | 30.5 µM (inactive)
13 | COC(=O)C1=NC(=S)NC(c2ccccc2)C1c1nc2ccccc2o1 (configuration not stated) | > 50 µM (inactive) | > 50 µM (inactive) | > 50 µM (inactive) | – | > 50 µM (inactive) | > 50 µM (inactive) | > 50 µM (inactive) | > 50 µM (inactive) | –
14 | Cc1csc(CCC(N)C(=O)O)n1 (configuration not stated) | – | – | > 100 µM (inactive) | > 100 µM (inactive) | – | > 100 µM (inactive) | > 100 µM (inactive) | > 100 µM (inactive) | –
15 | CN(C(=O)C12C3C4C1C1C2C3C41C(N)=O)C(C)(C)C (configuration not stated) | – | > 100 µM (inactive) | – | > 100 µM (inactive) | > 100 µM (inactive) | > 100 µM (inactive) | – | > 100 µM (inactive) | –
16 | Cc1ccc(NC(=O)CCC(CC(=O)C(C)(C)C)=NNC(=O)C(=O)NN)cc1C | > 100 µM (inactive) | 64.4 µM (inactive) | > 100 µM (inactive) | > 100 µM (inactive) | – | – | > 100 µM (inactive) | > 100 µM (inactive) | –
17 | O=C(/C=C/c1ccc(Cl)c(Cl)c1)c1cccc2ccccc12 | 5.22 µM (inactive) | – | 17.3 µM (inactive) | 4.05 µM (inactive) | 2.3 µM (inactive) | 11.4 µM (inactive) | 2.49 µM (inactive) | 11.7 µM (inactive) | 17 µM (inactive)
18 | COc1ccc(/C=C/C(=O)c2sc(N)nc2C)cc1 | > 100 µM (inactive) | – | > 100 µM (inactive) | > 100 µM (inactive) | > 100 µM (inactive) | > 100 µM (inactive) | > 100 µM (inactive) | > 100 µM (inactive) | –
19 | CC(=O)OCC1=CC2CCC3C(C)(CCC[C@]3(C)COC(C)=O)C23CC[C@H]1C3 (some centres not stated) | 41 µM (inactive) | 33.8 µM (inactive) | > 100 µM (inactive) | 29.6 µM (inactive) | 12.9 µM (inactive) | – | 51.6 µM (inactive) | 34.5 µM (inactive) | > 100 µM (inactive)
20 | C=COC(=O)N[C@H]1CCc2cc(OC)c(OC)c(OC)c2-c2ccc(SC)c(=O)cc21 | < 0.01 µM (active) | < 0.01 µM (active) | > 100 µM (inactive) | < 0.01 µM (active) | < 0.01 µM (active) | < 0.01 µM (active) | – | < 0.01 µM (active) | –
21 | CCCCCCCCCCCCn1[nH]c(C)c(C(=S)SCCCCCCCC)c1=O | 36.8 µM (inactive) | > 100 µM (inactive) | 61.5 µM (inactive) | 99.5 µM (inactive) | 26.7 µM (inactive) | > 100 µM (inactive) | 19.6 µM (inactive) | 23.6 µM (inactive) | 75.7 µM (inactive)
22 | COc1nc(C(Cl)(Cl)Cl)c(Cl)c(OC)c1Cl [PENCLOMEDINE] | 47 µM (inactive) | 25.3 µM (inactive) | 36.1 µM (inactive) | 40.4 µM (inactive) | 25.4 µM (inactive) | 37.1 µM (inactive) | 42.6 µM (inactive) | 31.5 µM (inactive) | 17.6 µM (inactive)
